Laboratory results taken from patent US7517857B2, “Immune-modulating peptide” (POSCO, priority 2002, dated 2009).
Where a SMILES comes first, the peptide text is derived from it. Where no end group is shown, it is not given here. [ ]: non-standard residue; d: D form.

Columns and labels:
Format in all cases: cell-based
human neutrophils = experiment: Superoxide generation in human neutrophils (cytochrome c reduction); settings: for O^2− (nmol/10^6 cells), superoxide generation: cytochrome c reduction
How it was run: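 Neutrophils isolated from donor leukocyte concentrates by dextran sedimentation, hypotonic erythrocyte lysis and lymphocyte separation gradient; 1×10^6 cells in RPMI 1640 preincubated 1 min at 37° C with 50 μM cytochrome c, then peptide added. Superoxide quantified as cytochrome c reduction, absorbance change at 550 nm over 5 min at 1-min intervals; ≥4 independent experiments.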

FPR = biological target: T1, FPR (Homo sapiens, UniProt P21462); experiment: ERK phosphorylation in FPR-expressing RBL-2H3 cells (immunoblot); settings: for ERKs phosphorylation/activation: 10 μM peptides 2 min (WKYMVm time course 1 μM)
T1 construct: expressed in transfected cells; host or cells: RBL-2H3 (rat basophilic leukemia) cells, G418-selected
T1 sequence (P21462 1-350): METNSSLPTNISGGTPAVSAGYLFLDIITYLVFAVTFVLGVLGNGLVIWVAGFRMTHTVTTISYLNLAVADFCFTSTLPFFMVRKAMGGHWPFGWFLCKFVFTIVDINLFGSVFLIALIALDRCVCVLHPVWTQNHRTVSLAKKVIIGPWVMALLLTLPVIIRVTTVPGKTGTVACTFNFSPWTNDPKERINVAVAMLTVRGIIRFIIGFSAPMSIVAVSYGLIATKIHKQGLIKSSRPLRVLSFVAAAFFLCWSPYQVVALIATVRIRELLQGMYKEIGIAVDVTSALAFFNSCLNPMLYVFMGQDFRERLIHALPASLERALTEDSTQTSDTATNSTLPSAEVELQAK
Experimental: (§1) Cultured RBL-2H3 cells were aliquoted into 2×10^6 cells and stimulated with the indicated concentrations of WKYMVm and the peptides of the present invention for the indicated lengths of time. FPR- or FPRL1-expressing RBL-2H3 cells were stimulated with 1 μM WKYMVm for various periods of time (FIG. 3A). Two cells were preincubated with a vehicle or 100 ng/ml of PTX (24 hr), 50 μM of LY294002 (15 min), 5 μM of GFX (15 min), 10 μM BAPTA/AM (60 min), or 50 μM PD98059 (60 min) prior to 1 μM of WKYMVm treatment (FIG. 3B). FPR- or FPRL1-expressing RBL2H3 cells were stimulated with 10 μM of the peptides of the present invention for 2 min or 5 min, respectively (FIG. 3C).
(§2) After stimulation, the cells were washed with serum-free RPMI and lysed in a lysis buffer (20 mM Hepes, pH 7.2, 10% glycerol, 150 mM NaCl, 1% Triton X-100, 50 mM NaF, 1 mM Na3VO4, 10 μg/ml leupeptin, 10 μg/ml aprotinin, and 1 mM phenylmethylsulfonyl fluoride). The detergent-insoluble materials were pelleted by centrifugation (12,000×g, 15 min, at 4° C.), and the soluble supernatant fraction was removed and stored at −80° C. or used immediately. Protein concentrations in the lysates were determined using the Bradford protein assay reagent.
(§3) Each sample ([…] of protein) was subjected to 10% SDS-PAGE and phosphorylated ERK was determined by an immunoblot analysis with an anti-phospho-ERK antibody. Protein samples were prepared for electrophoresis by addition of a concentrated sample buffer. The portions in the samples were then separated by an 10% SDS-polyacrylamide gel using the buffer system described by Laemmli (17).
(§4) Following the electrophoresis, a western blot analysis with an anti-ERK2 antibody was performed to confirm that the same amounts of samples were used for the experiments. The proteins were blotted onto nitrocellulose membranes. The nitrocellulose membranes were then blocked by incubation with TBS (Tris-buffered saline, 0.05% Tween-20) containing 5% non-fat dry milk. Subsequently, the membranes were incubated with anti-phospho-ERK antibody, anti-phospho-Akt antibody or anti-Akt antibody washed with TBS. For a PKC translocation assay, an antibody for PKC isozyme-specific was incubated. Antigen-antibody complexes were visualized after incubating the membrane with a 1:5000 diluted goat anti-rabbit IgG or goat anti-mouse IgG antibody coupled to horseradish peroxidase and using the enhanced chemiluminescence detection system.

FPRL1 [1] = biological target: T2, FPRL1 (Homo sapiens, UniProt P25090); experiment: [Ca2+]i increase in FPRL1-expressing RBL-2H3 cells (fura-2)
T2 construct: expressed in transfected cells; host or cells: RBL-2H3 (rat basophilic leukemia) cells, G418-selected
T2 sequence (P25090 1-351): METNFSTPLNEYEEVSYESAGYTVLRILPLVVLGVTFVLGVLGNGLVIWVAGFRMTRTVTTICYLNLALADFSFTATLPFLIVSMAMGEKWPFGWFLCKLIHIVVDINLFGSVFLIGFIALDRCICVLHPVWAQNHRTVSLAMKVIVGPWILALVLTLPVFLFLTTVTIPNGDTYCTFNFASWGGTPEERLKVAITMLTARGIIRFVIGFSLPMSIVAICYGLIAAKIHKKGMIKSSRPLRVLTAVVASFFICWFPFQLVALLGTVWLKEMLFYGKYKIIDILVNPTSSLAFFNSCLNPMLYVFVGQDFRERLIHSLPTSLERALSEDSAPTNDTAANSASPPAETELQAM

FPRL1 [2] = biological target: T2, FPRL1; experiment: ERK phosphorylation in FPRL1-expressing RBL-2H3 cells (immunoblot)
Experimental: as §1, §2, §3, §4

| Compound | O^2− (nmol/10^6 cells), superoxide generation (human neutrophils; peptide 100 nM) | O^2− (nmol/10^6 cells), superoxide generation (human neutrophils; peptide 10 μM) | ERKs phosphorylation/activation (FPR) | [Ca^2+]i increasing activity (FPRL1 [1]) | concentration showing the maximal activity on superoxide generation (human neutrophils; data not shown) | O^2− (nmol/10^6 cells), superoxide generation (human neutrophils; peptide 100 nM, listed as wkymvm-NH2) | O^2− (nmol/10^6 cells), superoxide generation (human neutrophils; peptide 10 μM, listed as wkymvm-NH2) | time of maximal ERKs activity after peptide treatment (FPR; 1 μM WKYMVm) | time of maximal ERKs activity after peptide treatment (FPRL1 [2]; 1 μM WKYMVm) | ERKs phosphorylation/activation (FPRL1 [2]; 10 μM peptides 5 min (WKYMVm time course 1 μM)) | concentration showing maximal [Ca^2+]i increase activity (FPRL1 [1]; data not shown) | EC50 (nM), intracellular calcium increase (FPRL1 [1]; fura-2 loaded) |
| --- | --- | --- | --- | --- | --- | --- | --- | --- | --- | --- | --- | --- |
| CSCC[C@H](NC(=O)CNC(=O)[C@H](CCCCN)NC(=O)[C@@H](N)Cc1c[nH]c2ccccc12)C(=O)N[C@H](C(=O)N[C@H](CCSC)C(N)=O)C(C)C [WKGMVm-NH2, Trp-Lys-Gly-Met-Val-D-Met-NH2] (H-WKGMV[dM]-NH2; N-terminus assumed) | 14.2 ± 3.42 nmol/10^6 cells | 37.6 ± 4.57 nmol/10^6 cells | stimulated ERKs phosphorylation | showed [Ca^2+]i-increasing activity in FPRL1 cells, with a little lower affinity to FPRL1 | – | – | – | – | – | – | – | – |
| CSCC[C@H](NC(=O)[C@H](CCCNC(=N)N)NC(=O)[C@H](CCCCN)NC(=O)[C@@H](N)Cc1c[nH]c2ccccc12)C(=O)N[C@H](C(=O)N[C@H](CCSC)C(N)=O)C(C)C [WKRMVm-NH2, Trp-Lys-Arg-Met-Val-D-Met-NH2] (H-WKRMV[dM]-NH2; N-terminus assumed) | 15.9 ± 2.48 nmol/10^6 cells | 41.7 ± 8.32 nmol/10^6 cells | stimulated ERKs phosphorylation | – | – | – | – | – | – | – | – | – |
| CSCC[C@H](NC(=O)[C@H](Cc1ccc(O)cc1)NC(=O)[C@H](CCCCN)NC(=O)[C@@H](N)Cc1c[nH]c2ccccc12)C(=O)N[C@H](C(=O)N[C@H](CCSC)C(N)=O)C(C)C [WKYMVm-NH2, Trp-Lys-Tyr-Met-Val-D-Met-NH2, reference compound] | 37.3 ± 6.94 nmol/10^6 cells | 39.0 ± 3.58 nmol/10^6 cells | induced transient activation of ERKs | – | 100 nM | 0 nmol/10^6 cells | 0 nmol/10^6 cells | 2 min | 5 min | induced transient activation of ERKs | 10 nM | inactive |
| WKYMVE-NH2 [WKYMVE-NH2, Trp-Lys-Tyr-Met-Val-Glu-NH2] | 5.0 ± 0.43 nmol/10^6 cells | 33.6 ± 6.43 nmol/10^6 cells | stimulated ERKs phosphorylation | – | – | – | – | – | – | – | – | – |
| WKYMVR-NH2 [WKYMVR-NH2, Trp-Lys-Tyr-Met-Val-Arg-NH2] | 16.3 ± 1.57 nmol/10^6 cells | 44.8 ± 3.65 nmol/10^6 cells | stimulated ERKs phosphorylation | – | – | – | – | – | – | – | – | – |
